In article PMC5471521, “Novel selective β1-adrenoceptor antagonists for concomitant cardiovascular and respiratory disease” (The FASEB Journal, 2017):
Like-named read-outs stand apart in the source and are kept apart here.

Assays:
human β2-AR = molecular target: T1, human β2-AR (Homo sapiens, UniProt P07550); experiment: Antagonism of cimaterol-induced 3H-cAMP accumulation in CHO-β2 cells; type: cell-based; settings: cimaterol agonist, mean ± SEM, read-out: Log Kd,β2 (converted)
T1 construct: expressed in transfected cells
T1 sequence (P07550 whole entry): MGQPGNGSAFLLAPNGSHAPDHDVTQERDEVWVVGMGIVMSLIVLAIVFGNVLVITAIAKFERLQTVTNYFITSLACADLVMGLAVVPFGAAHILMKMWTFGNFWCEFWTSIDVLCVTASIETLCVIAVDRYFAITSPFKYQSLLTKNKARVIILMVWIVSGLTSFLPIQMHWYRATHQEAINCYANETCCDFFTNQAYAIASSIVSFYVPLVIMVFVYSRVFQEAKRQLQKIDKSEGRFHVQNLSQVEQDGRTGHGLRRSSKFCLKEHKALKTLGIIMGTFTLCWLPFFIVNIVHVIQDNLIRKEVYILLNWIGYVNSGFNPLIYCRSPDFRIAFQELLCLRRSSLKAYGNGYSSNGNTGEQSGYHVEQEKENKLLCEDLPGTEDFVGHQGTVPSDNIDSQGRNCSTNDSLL
Protocol: (§1) Confluent cells were examined (24-well plates, 5 h incubation at 37°C) as described in Baker ([45]). Antagonist Kd values were calculated from a rightward shift of the agonist concentration response curve by using the Gaddum equation as previously described ([46]).

human β1-AR = molecular target: T2, human β1-AR (Homo sapiens, UniProt P08588); experiment: 3H-cAMP accumulation agonist response in CHO-β1 cells; type: cell-based; settings: agonist mode
T2 construct: expressed in transfected cells
T2 sequence (P08588 whole entry): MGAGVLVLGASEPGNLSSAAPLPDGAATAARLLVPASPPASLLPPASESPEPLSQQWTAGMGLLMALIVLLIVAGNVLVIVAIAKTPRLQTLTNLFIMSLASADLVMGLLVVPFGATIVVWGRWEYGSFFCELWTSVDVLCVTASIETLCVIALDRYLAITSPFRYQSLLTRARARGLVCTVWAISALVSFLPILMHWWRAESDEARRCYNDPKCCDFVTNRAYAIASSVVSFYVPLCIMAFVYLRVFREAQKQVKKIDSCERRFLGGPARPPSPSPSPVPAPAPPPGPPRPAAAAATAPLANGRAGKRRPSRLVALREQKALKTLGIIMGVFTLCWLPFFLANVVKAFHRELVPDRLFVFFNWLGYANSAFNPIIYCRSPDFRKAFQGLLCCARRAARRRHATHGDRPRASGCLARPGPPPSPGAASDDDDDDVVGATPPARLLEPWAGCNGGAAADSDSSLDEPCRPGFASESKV
Protocol: as §1

[1] = PK analysis in male Sprague-Dawley rats; type: in vivo; settings: rat; for AUC(0-t) / half-life / clearance / Vd / Cmax / Tmax / bioavailability: male, Sprague-Dawley; for AUC(0-t) / half-life / clearance / Vd / Cmax / Tmax / AUC0-t/dose: hydrochloride salt forms; for half-life: read-out: t1/2, app (converted); for Vd: read-out: Vss; for Unbound plasma level at Cmax below β2-AR Kd / Likely duration of β1-AR blockade: 20 mg/kg p.o.; for Likely duration of β1-AR blockade: judged from PK profile vs Kd
Protocol: Blood samples were centrifuged, supernatant plasma was removed, and plasma concentrations of compounds were determined by LC-MS. […] Studies were carried out by CDCO.

[2] = system: panel of 80 receptors and ion channels; experiment: Cerep in vitro receptor selectivity profiling; type: binding; settings: CGP20712A and LK204-545 at 10 μM, NDD-713 at 4.8 μM, NDD-825 at 2.4 μM
Protocol: Ki (inhibition constant) was calculated by using the Cheng-Prusoff equation from the mean of duplicate determinations in cell-based receptor radioligand-binding assays. Cerep in vitro pharmacology profiling service was used (see the Supplemental Data for a list of the assays used).

[3] = Metabolic stability, rat liver microsomes; type: in vitro ADME; settings: in the presence of NAD+, NADPH, or in the absence of cofactors
Protocol: (§2) NDD-713.HCl and -825.HCl were incubated (0.02, 0.1, or 0.5 μM at 37°C, 120 min) with human (XenoTech, Kansas City, KS, USA) or rat liver microsomes (BD Biosciences, Brea, CA, USA) at 0.4 mg/ml protein concentration. Metabolic reaction was initiated by addition of NADPH-regenerating system or NADPH-regenerating system with uridine diphosphate glucuronic acid. Samples were quenched at time points by acetonitrile addition. Control samples, which contained neither NADPH, nor uridine diphosphate glucuronic acid, were monitored for degradation. Compound concentrations were determined by ultraperformance LC-MS (UPLC-MS) relative to calibration standards that were prepared in quenched liver microsomes and fitted to exponential decay functions to determine first-order rate constants (k) for substrate depletion. These were used to calculate in vitro intrinsic clearance (CLint) values: CLint = k/microsomal protein content (0.4 mg protein/ml). Metabolic stability assays that used rat liver cytosol (BD Biosciences), human cryopreserved hepatocytes, or rat hepatocytes were carried out similarly. Average viable cell concentrations were determined by Trypan Blue exclusion methods (in the absence of test compounds). Studies were carried out by CDCO.

CYP3A4 = molecular target: T3, CYP3A4 (Homo sapiens, UniProt P08684); experiment: P450 in vitro clearance, recombinant Supersomes; type: in vitro ADME; settings: 2 μM, hydrochloride salts used
T3 construct: purchased BD Biosciences
T3 sequence (P08684 whole entry): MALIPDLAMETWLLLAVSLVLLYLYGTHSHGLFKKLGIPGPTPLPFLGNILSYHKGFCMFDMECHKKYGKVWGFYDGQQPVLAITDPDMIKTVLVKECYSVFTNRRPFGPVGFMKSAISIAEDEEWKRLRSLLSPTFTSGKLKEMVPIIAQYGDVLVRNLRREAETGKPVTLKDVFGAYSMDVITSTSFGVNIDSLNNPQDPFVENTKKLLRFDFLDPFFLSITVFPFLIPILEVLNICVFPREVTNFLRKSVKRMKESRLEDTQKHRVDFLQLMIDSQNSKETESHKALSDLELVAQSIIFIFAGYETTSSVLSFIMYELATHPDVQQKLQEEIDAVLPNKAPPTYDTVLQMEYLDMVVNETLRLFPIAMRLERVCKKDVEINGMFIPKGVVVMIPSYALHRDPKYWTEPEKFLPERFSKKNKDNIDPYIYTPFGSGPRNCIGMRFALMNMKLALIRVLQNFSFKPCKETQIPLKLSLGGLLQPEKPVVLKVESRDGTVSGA
Protocol: NDD-713.HCl and -825.HCl (2 μM) and cytochrome P450 (P450) reference substrates (see Supplemental Data for full details) were incubated (37°C) with selected recombinant human P450 isoforms (CYP1A2, CYP2A6, CYP2B6, CYP2C8, CYP2C9, CYP2C19, CYP2D6 CYP2E1, and CYP3A4) in heterologously expressed P450 Supersomes (BD Biosciences) that were suspended in […] Tris-HCl buffer (pH 7.4; for CYP2C9) or 100 mM phosphate buffer (pH 7.4; for the other isoforms) at final P450 concentrations of 85 pmol/ml. Reactions were initiated by additions of an NADPH-regenerating system and quenched at time points over 60 min (reference probes) or 120 min (test compounds) by acetonitrile. Quenched samples were centrifuged and supernatants were collected. NDD-713, -825, and probe metabolites were determined by UPLC-MS relative to calibration standards prepared in quenched matrix, and %substrate that remained was calculated relative to the initial sample concentration. The %substrate that remained vs. time was fitted to exponential decay functions to determine the pseudo first-order rate constant (k/min) for substrate depletion. These were normalized to P450 concentrations (pmol/ml) to obtain in vitro CLint values: CLint, in vitro (μl/min/pmol P450) = [k (min^−1)/P450 concentration […]] × 1000. Studies were carried out by CDCO.

HepG2 cells = experiment: HepG2 cytotoxicity (CellTiter-Glo); type: cell-based, human; settings: 24 h, even at the limits of aqueous solubility
Protocol: Human hepatocyte carcinoma cells (HepG2; European Collection of Cell Cultures, Salisbury, United Kingdom) were grown in accordance with their guidelines by using DMEM. Cells at a density of 30,000 cells/well in 96-well plates were incubated overnight (37°C, 5% CO2 atmosphere). Medium was then removed and replaced with DMEM that contained control or compounds (1, 10, and 100 μM; n = 2 per concentration) for 24 h before addition of 100 μl/well of CellTiter-Glo Reagent (Promega, Madison, WI, USA) for ATP measurement and shaken to induce cell lysis. Luminescence was quantified on an AnalystAD plate-reader (Molecular Devices, Sunnyvale, CA, USA). Thioridizine (known HepG2 cytotoxicity) was used as positive control. Study was carried out by BioFocus DPI (Saffron Walden, United Kingdom).

β1-AR vs. β2-AR = experiment: Calculation of selectivity indices (receptor occupancy, PK-pharmacodynamic ternary complex model); settings: human, exercise HR vs FEV1, ternary complex model
[4] = Metabolic stability, rat hepatocytes; type: in vitro ADME
Protocol: as §2

[5] = plasma, iv, i.v. 2 mg/kg, mean ± SD n = 3
[6] = plasma, iv, i.v. 2 mg/kg, read-out: Plasma CLtotal
[7] = plasma, iv, i.v. 6 mg/kg, mean ± SD n = 3
[8] = plasma, iv, i.v. 6 mg/kg, read-out: Plasma CLtotal
[9] = plasma, iv, i.v. 20 mg/kg, mean ± SD n = 3
[10] = plasma, iv, i.v. 20 mg/kg, read-out: Plasma CLtotal
[11] = whole blood, iv, i.v. 2 mg/kg, read-out: Blood CLtotal
[12] = whole blood, iv, i.v. 6 mg/kg, read-out: Blood CLtotal
[13] = whole blood, iv, i.v. 20 mg/kg, read-out: Blood CLtotal

Compound: NC(=O)c1ccc(OCCNC[C@H](O)COc2ccc3c(c2)OC[C@@H](COCC2CC2)O3)cc1 [NDD-713]
- Kd (human β2-AR): 3630 nM
- Maximum 3H-cAMP response relative to isoprenaline (human β1-AR): No ^3H-cAMP responses were observed
- AUC(0-t) ([1]; plasma, iv, i.v. 2 mg/kg): 1.2 ± 0.1 µM·h
- half-life [1, 5]: 1.7 ± 0.2 h
- clearance [1, 6]: 62 ± 4 mL/min/kg
- Vd ([1]; plasma, iv, i.v. 2 mg/kg): 4.3 ± 0.4 L/kg
- AUC(0-t) ([1]; plasma, iv, i.v. 6 mg/kg): 4.6 ± 0.3 µM·h
- half-life [1, 7]: 1.6 ± 0.1 h
- clearance [1, 8]: 43 ± 1 mL/min/kg
- Vd ([1]; plasma, iv, i.v. 6 mg/kg): 3.6 ± 0.2 L/kg
- AUC(0-t) ([1]; plasma, iv, i.v. 20 mg/kg): 14.7 ± 1 µM·h
- half-life [1, 9]: 2 h
- clearance [1, 10]: 51 ± 2 mL/min/kg
- Vd ([1]; plasma, iv, i.v. 20 mg/kg): 4.2 ± 0.2 L/kg
- AUC(0-t) ([1]; plasma, po, p.o. 2 mg/kg): 0.6 ± 0.2 µM·h
- Cmax ([1]; plasma, po, p.o. 2 mg/kg): 200 ± 100 nM
- Tmax ([1]; plasma, po, p.o. 2 mg/kg): 0.5 h
- AUC(0-t) ([1]; plasma, po, p.o. 10 mg/kg): 5.1 ± 0.2 µM·h
- Cmax ([1]; plasma, po, p.o. 10 mg/kg): 2100 ± 600 nM
- Tmax ([1]; plasma, po, p.o. 10 mg/kg): 0.75 h
- half-life ([1]; plasma, po, p.o. 10 mg/kg): 1.5 h
- AUC(0-t) ([1]; plasma, po, p.o. 20 mg/kg): 6.3 ± 0.3 µM·h
- Cmax ([1]; plasma, po, p.o. 20 mg/kg): 2000 ± 100 nM
- Tmax ([1]; plasma, po, p.o. 20 mg/kg): 0.75 h
- half-life ([1]; plasma, po, p.o. 20 mg/kg): 2.1 h
- bioavailability ([1]; plasma, po, 2 mg/kg): 50 ± 11%
- bioavailability ([1]; plasma, po, 10 mg/kg): 77 ± 3%
- bioavailability ([1]; plasma, po, 20 mg/kg): 44 ± 1%
- clearance [1, 11]: 51 ± 3 mL/min/kg
- clearance [1, 12]: 36 ± 1 mL/min/kg
- clearance [1, 13]: 42 ± 1 mL/min/kg
- Unbound plasma level at Cmax below β2-AR Kd [1]: at least 5 fold
- Likely duration of β1-AR blockade [1]: 10 h
- AUC0-t/dose ([1]; i.v. 2 mg/kg): 0.6 ± 0.1 μM ⋅ h/(mg/kg)
- AUC0-t/dose ([1]; i.v. 6 mg/kg): 0.8 ± 0 μM ⋅ h/(mg/kg)
- AUC0-t/dose ([1]; i.v. 20 mg/kg): 0.7 ± 0 μM ⋅ h/(mg/kg)
- AUC0-t/dose ([1]; p.o. 2 mg/kg): 0.4 ± 0.1 μM ⋅ h/(mg/kg)
- AUC0-t/dose ([1]; p.o. 10 mg/kg): 0.5 ± 0.1 μM ⋅ h/(mg/kg)
- AUC0-t/dose ([1]; p.o. 20 mg/kg): 0.3 ± 0 μM ⋅ h/(mg/kg)
- Off-target binding in receptor and ion channel panel [2]: poor affinity for most other GPCRs and ion channels
- microsomal CLint [3]: < 0.1 µL/min/mg
- P450 in vitro clearance CLint, CYP3A4 (CYP3A4): 0.07 μl/min/pmol P450
- Cytotoxic effects in HepG2 cell viability assay (HepG2 cells): no cytotoxic effects
- SI3 (in vivo pharmacologic response) = Eβ1/Eβ2 (β1-AR vs. β2-AR): 67
- CLint rat hepatocytes [4]: minimal

Compound: O=C1NCc2cc(OCCNC[C@H](O)COc3ccc4c(c3)OC[C@@H](COCC3CC3)O4)ccc21 [NDD-825]
- Kd (human β2-AR): 1780 nM
- Maximum 3H-cAMP response relative to isoprenaline (human β1-AR): No ^3H-cAMP responses were observed
- AUC(0-t) ([1]; plasma, iv, i.v. 2 mg/kg): 1.4 µM·h
- half-life [1, 5]: 5.3 ± 0.3 h
- clearance [1, 6]: 54 ± 2 mL/min/kg
- Vd ([1]; plasma, iv, i.v. 2 mg/kg): 6 ± 0.5 L/kg
- AUC(0-t) ([1]; plasma, iv, i.v. 6 mg/kg): 3.8 ± 0.2 µM·h
- half-life [1, 7]: 7.3 ± 0.1 h
- clearance [1, 8]: 59 ± 1 mL/min/kg
- Vd ([1]; plasma, iv, i.v. 6 mg/kg): 5 L/kg
- AUC(0-t) ([1]; plasma, iv, i.v. 20 mg/kg): 12.1 ± 0.3 µM·h
- half-life [1, 9]: 7.1 ± 1.3 h
- clearance [1, 10]: 55 ± 1 mL/min/kg
- Vd ([1]; plasma, iv, i.v. 20 mg/kg): 4.7 L/kg
- AUC(0-t) ([1]; plasma, po, p.o. 2 mg/kg): 0.4 ± 0.1 µM·h
- Cmax ([1]; plasma, po, p.o. 2 mg/kg): 100 nM
- Tmax ([1]; plasma, po, p.o. 2 mg/kg): 1.38 h
- half-life ([1]; plasma, po, p.o. 2 mg/kg): 9.8 ± 0.2 h
- AUC(0-t) ([1]; plasma, po, p.o. 10 mg/kg): 3 ± 0.4 µM·h
- Cmax ([1]; plasma, po, p.o. 10 mg/kg): 800 ± 100 nM
- Tmax ([1]; plasma, po, p.o. 10 mg/kg): 0.75 h
- half-life ([1]; plasma, po, p.o. 10 mg/kg): 4.6 ± 0.1 h
- AUC(0-t) ([1]; plasma, po, p.o. 20 mg/kg): 11.9 ± 3 µM·h
- Cmax ([1]; plasma, po, p.o. 20 mg/kg): 1400 ± 300 nM
- Tmax ([1]; plasma, po, p.o. 20 mg/kg): 3.1 h
- half-life ([1]; plasma, po, p.o. 20 mg/kg): 3.3 ± 0.2 h
- bioavailability ([1]; plasma, po, 2 mg/kg): 32 ± 5%
- bioavailability ([1]; plasma, po, 10 mg/kg): 45 ± 6%
- bioavailability ([1]; plasma, po, 20 mg/kg): 89 ± 24%
- clearance [1, 11]: 39 ± 1 mL/min/kg
- clearance [1, 12]: 42 ± 1 mL/min/kg
- clearance [1, 13]: 39 ± 1 mL/min/kg
- Unbound plasma level at Cmax below β2-AR Kd [1]: at least 5 fold
- Likely duration of β1-AR blockade [1]: > 24 h
- AUC0-t/dose ([1]; i.v. 2 mg/kg): 0.6 ± 0 μM ⋅ h/(mg/kg)
- AUC0-t/dose ([1]; i.v. 6 mg/kg): 0.6 ± 0 μM ⋅ h/(mg/kg)
- AUC0-t/dose ([1]; i.v. 20 mg/kg): 0.6 ± 0 μM ⋅ h/(mg/kg)
- AUC0-t/dose ([1]; p.o. 2 mg/kg): 0.2 ± 0 μM ⋅ h/(mg/kg)
- AUC0-t/dose ([1]; p.o. 10 mg/kg): 0.3 ± 0.1 μM ⋅ h/(mg/kg)
- AUC0-t/dose ([1]; p.o. 20 mg/kg): 0.5 ± 0.2 μM ⋅ h/(mg/kg)
- Off-target binding in receptor and ion channel panel [2]: poor affinity for most other GPCRs and ion channels
- microsomal CLint [3]: 0.18 ± 0.2 µL/min/mg
- P450 in vitro clearance CLint, CYP3A4 (CYP3A4): 0.17 μl/min/pmol P450
- Cytotoxic effects in HepG2 cell viability assay (HepG2 cells): no cytotoxic effects
- SI3 (in vivo pharmacologic response) = Eβ1/Eβ2 (β1-AR vs. β2-AR): 81
- hepatocyte CLint ([4]; hepatocytes): 5 µL/min/1e6 cells
